Consider 26 compounds from patent US10556900B2, “TrkA kinase inhibitors, compositions and methods thereof” (Merck Sharp & Dohme Corp., priority 2015, dated 2020).

Sequence of human TrkA receptor (P04629 33-796): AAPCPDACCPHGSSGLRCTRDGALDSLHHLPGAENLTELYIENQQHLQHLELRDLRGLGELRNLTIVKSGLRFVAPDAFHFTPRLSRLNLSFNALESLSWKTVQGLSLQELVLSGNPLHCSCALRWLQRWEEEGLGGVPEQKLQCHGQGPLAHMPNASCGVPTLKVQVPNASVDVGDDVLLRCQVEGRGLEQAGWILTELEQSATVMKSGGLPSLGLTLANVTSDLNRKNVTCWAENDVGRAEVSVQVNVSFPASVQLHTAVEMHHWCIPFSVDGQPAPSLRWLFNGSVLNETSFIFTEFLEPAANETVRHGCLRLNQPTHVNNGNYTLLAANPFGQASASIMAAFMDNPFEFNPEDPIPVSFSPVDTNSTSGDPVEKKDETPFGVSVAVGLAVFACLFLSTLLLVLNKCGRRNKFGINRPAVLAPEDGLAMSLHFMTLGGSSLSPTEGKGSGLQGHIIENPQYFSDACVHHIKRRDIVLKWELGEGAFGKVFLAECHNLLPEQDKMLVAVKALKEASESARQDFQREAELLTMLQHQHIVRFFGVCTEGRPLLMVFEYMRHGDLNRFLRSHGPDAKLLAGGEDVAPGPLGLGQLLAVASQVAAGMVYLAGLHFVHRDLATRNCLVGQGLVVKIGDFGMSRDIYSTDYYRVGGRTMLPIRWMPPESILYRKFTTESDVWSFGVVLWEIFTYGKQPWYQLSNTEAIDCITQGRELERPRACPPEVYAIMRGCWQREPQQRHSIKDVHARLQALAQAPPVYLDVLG

This experiment addresses human TrkA receptor (Homo sapiens (Human), UniProt P04629). The experiment can be described thus: TrkA functional activity, DiscoverX PathHunter assay (NGF-stimulated U2OS cells). The note with it: U2OS cells expressing human TrkA-Prolink, Shc1-EA and p75NTR; compound 1 h, then NGF (~80% of maximal response) 3 h; luminescence. The experiment is classed as cell-based. The protocol:
TrkA functional activity was measured using a DiscoverX PathHunter assay. In this assay, U2OS cells express the human TrkA receptor as a fusion with the weakly complementing fragment of B-galactosidase, which DiscoverX calls “Prolink (PK)”; additionally, Shc1 is fused with a larger fragment, which is called “Enzyme Acceptor (EA)”. Activation of the TrkA receptor, upon NGF addition, results in the kinase domain being phosphorylated, resulting in subsequent recruitment of Shc1-EA protein. That recruitment results in an active B-galactosidase enzyme that is detected by addition of a chemiluminescent substrate. The human p75^NTR protein was also expressed as a co-receptor for NGF.
All reagents were purchased from DiscoverX, except for the receptor agonists (NGF, BDNF, NT3) which were purchased from Peprotech. Cells were expanded and frozen into cryovials, and stored in the vapor phase of liquid nitrogen, and thawed immediately before use. Thawed cells were added to a 384-well plate at 7500 cells/well, and allowed to incubate overnight. Compound at various concentrations was added the following morning and allowed to incubate on cells for 1 h. Then, NGF was added at a concentration sufficient to elicit ˜80% of a maximal response and allowed to incubate for 3 h at ambient temperature. DiscoverX PathHunter detection reagent was then added and the plate was further incubated for 1 h in the dark. The plate was then read via luminescence on the Perkin Elmer Envision.
Usually IC50 stands for the concentration needed to halve the response being measured. On to `CC(O)c1nc2c(NC(=O)c3ccc(C(F)(F)F)c(-c4ccn(C)n4)c3)c(-c3ccccc3)ccc2s1` (racemic) [Compound 6, (R and S)—N-(2-(1-Hydroxyethyl)-5-phenylbenzo[d]thiazol-4-yl)-3-(1-methyl-1H-pyrazol-3-yl)-4-(trifluoromethyl)benzamide], for which the concentration for half-maximal inhibition (IC50) was determined as 11 nM. This lies in the double-digit nanomolar range.
For `CC(O)c1n[nH]c2c(NC(=O)c3ccc(C(F)(F)F)c(-c4ccn(C)n4)c3)c(-c3ccccc3)ccc12` (single isomer, unassigned) [Compound 48, (R) or (S)-N-[3-(1-hydroxyethyl)-6-phenyl-1H-indazol-7-yl]-3-(1-methyl-1H-pyrazol-3-yl)-4-(trifluoromethyl)benzamide] the value was 0.9 nM; for `O=C(Nc1c(-c2cccc(CO)c2)ccn2ccnc12)c1cc(-c2ncccn2)c(C(F)(F)F)cc1F` [Compound 58, 2-Fluoro-N-(7-(3-(hydroxymethyl)phenyl)imidazo[1,2-a]pyridin-8-yl)-5-(pyrimidin-2-yl)-4-(trifluoromethyl)benzamide], 232 nM.
For `Cn1ccc(-c2cc(C(=O)Nc3c(-c4ccccc4)ccc4c(C(C)(C)O)cnn34)ccc2C(F)(F)F)n1` [Compound 37, N-[3-(1-hydroxy-1-methylethyl)-6-phenylpyrazolo[1,5-a]pyridin-7-yl]-3-(1-methyl-1H-pyrazol-3-yl)-4-(trifluoromethyl)benzamide] the value was 4.5 nM.
Under `CC(=O)c1c[nH]c2c(NC(=O)c3ccc(C(F)(F)F)c(-c4ccn(C)n4)c3)c(-c3ccccc3)ccc12` [Compound 43, N-(3-Acetyl-6-phenyl-1H-indol-7-yl)-3-(1-methyl-1H-pyrazol-3-yl)-4-(trifluoromethyl)benzamide] stands 5 nM; under `CC(O)c1cnc2c(NC(=O)c3cc(-c4ccn(C)n4)c(C(F)(F)F)cc3F)c(-c3ccccc3)ccn12` (single isomer, unassigned) [Compound 26, (R) or (S)-2-fluoro-N-[3-(1-hydroxyethyl)-7-phenylimidazo[1,2-a]pyridin-8-yl]-5-(1-methyl-1H-pyrazol-3-yl)-4-(trifluoromethyl)benzamide], 0.31 nM.
On to `CC(O)c1cnc2c(NC(=O)c3cc(-c4ncccn4)c(C(F)(F)F)cc3F)c(-c3ccccc3)ncn12` (single isomer, unassigned) [Compound 72, (R and S)-2-Fluoro-N-(3-(1-hydroxyethyl)-7-phenylimidazo[1,2-c]pyrimidin-8-yl)-5-(pyrimidin-2-yl)-4-(trifluoromethyl)benzamide], for which the 50% inhibitory concentration (IC50) was 5.1 nM.
Under `O=C(Nc1c(-c2ccccc2)ccn2c(CO)cnc12)c1cc(-c2ccccn2)c(C(F)(F)F)cc1F` [Compound 24, 2-fluoro-N-[3-(hydroxymethyl)-7-phenylimidazo[1,2-a]pyridin-8-yl]-5-pyridin-2-yl-4-(trifluoromethyl)benzamide] stands 2.5 nM.
For the compound `Cn1ccc(-c2cc(C(=O)Nc3c(-c4ccccc4)ccn4c(C(N)=O)cnc34)ccc2C(F)(F)F)n1` [Compound 12, 8-({[3-(1-methyl-1H-pyrazol-3-yl)-4-(trifluoromethyl)phenyl]carbonyl}amino)-7-phenylimidazo[1,2-a]pyridine-3-carboxamide], the half-maximal inhibitory concentration (IC50) was 5.7 nM.
For `Cn1ccc(-c2cc(C(=O)Nc3c(-c4ccccc4)ccc4nc(C(C)(C)O)sc34)ccc2C(F)(F)F)n1` [Compound 3, N-(2-(2-Hydroxypropan-2-yl)-6-phenylbenzo[d]thiazol-7-yl)-3-(1-methyl-1H-pyrazol-3-yl)-4-(trifluoromethyl)benzamide] the value was 323 nM; for `[2H]C(C)(O)c1cnc2c(NC(=O)c3cc(-c4ncccn4)c(C(F)(F)F)cc3F)c(-c3ccccc3)ccn12` (single isomer, unassigned) [Compound 75, (R and S)-2-Fluoro-N-(3-(1-hydroxyethyl-1-d)-7-phenylimidazo[1,2-a]pyridin-8-yl)-5-(pyrimidin-2-yl)-4-(trifluoromethyl)benzamide], 2 nM.
`Cn1ccc(-c2cc(C(=O)Nc3c(-c4ccccc4)ccn4c(CO)cnc34)ccc2C(F)(F)F)n1` [Compound 13, N-[3-(hydroxymethyl)-7-phenylimidazo[1,2-a]pyridin-8-yl]-3-(1-methyl-1H-pyrazol-3-yl)-4-(trifluoromethyl)benzamide] returned an IC50 of 2.4 nM.
For `CC(O)c1cnc2c(NC(=O)c3cc(-c4ncccn4)c(C(F)(F)F)cc3F)c(-c3ccccc3)ccn12` (single isomer, unassigned) [Compound 10, (R) or (S)-2-Fluoro-N-(3-(1-hydroxyethyl)-7-phenylimidazo[1,2-a]pyridin-8-yl)-5-(pyrimidin-2-yl)-4-(trifluoromethyl)benzamide] the value was 1.1 nM; for `CC(C)(O)c1n[nH]c2c(NC(=O)c3cc(-c4ncccn4)c(C(F)(F)F)cc3F)c(-c3ccccc3)ccc12` [Compound 45, 2-Fluoro-N-(3-(2-hydroxypropan-2-yl)-6-phenyl-1H-indazol-7-yl)-5-(pyrimidin-2-yl)-4-(trifluoromethyl)benzamide], 4.3 nM; for `CC(O)c1cnc2c(NC(=O)c3cc(-c4ccccn4)c(C(F)(F)F)cc3F)c(-c3ccccc3)ccn12` (single isomer, unassigned) [Compound 29, (R) or (S)-2-fluoro-N-[3-(1-hydroxyethyl)-7-phenylimidazo[1,2-a]pyridin-8-yl]-5-pyridin-2-yl-4-(trifluoromethyl)benzamide], 1.7 nM.
Compound `Cn1ccc(-c2cc(C(=O)Nc3c(-c4ccccc4)ccn4c(C(C)(C)O)cnc34)c(F)cc2C(F)(F)F)n1` [Compound 16, 2-fluoro-N-[3-(1-hydroxy-1-methylethyl)-7-phenylimidazo[1,2-a]pyridin-8-yl]-5-(1-methyl-1H-pyrazol-3-yl)-4-(trifluoromethyl)benzamide] yielded an IC50 of 0.2 nM.
Consider `Cn1ccc(-c2cc(C(=O)Nc3c(-c4ccccc4)ncn4cnnc34)ccc2C(F)(F)F)n1` [Compound 33, 3-(1-methyl-1H-pyrazol-3-yl)-N-(7-phenyl[1,2,4]triazolo[4,3-c]pyrimidin-8-yl)-4-(trifluoromethyl)benzamide], for which it took 6.3 nM to reach half-maximal inhibition (IC50).
For `Cn1ccc(-c2cc(C(=O)Nc3c(-c4ccccc4)ccc4c(CO)cnn34)c(F)cc2C(F)(F)F)n1` [Compound 39, 2-fluoro-N-[3-(hydroxymethyl)-6-phenylpyrazolo[1,5-a]pyridin-7-yl]-5-(1-methyl-1H-pyrazol-3-yl)-4-(trifluoromethyl)benzamide] the value was 0.33 nM; for `CC(O)c1cnc2c(NC(=O)c3cc(-c4cc[nH]n4)c(C(F)(F)F)cc3F)c(-c3ccccc3)ccn12` (single isomer, unassigned) [Compound 28, (R) or (S)-2-fluoro-N-[3-(1-hydroxyethyl)-7-phenylimidazo[1,2-a]pyridin-8-yl]-5-(1H-pyrazol-3-yl)-4-(trifluoromethyl)benzamide], 1.8 nM.
The compound `CC(O)c1n[nH]c2c(NC(=O)c3ccc(C(F)(F)F)c(-c4ccn(C)n4)c3)c(-c3ccccc3)ccc12` (single isomer, unassigned) [Compound 49, (R) or (S)-N-[3-(1-hydroxyethyl)-6-phenyl-1H-indazol-7-yl]-3-(1-methyl-1H-pyrazol-3-yl)-4-(trifluoromethyl)benzamide] showed an IC50 of 2 nM. The IC50 values of the last two compounds are within 1.5-fold of each other.
Under `NC(=O)c1cnc2c(NC(=O)c3cc(-c4ncccn4)c(C(F)(F)F)cc3F)c(-c3ccccc3)ccn12` [Compound 7, 8-(2-Fluoro-5-(pyrimidin-2-yl)-4-(trifluoromethyl)benzamido)-7-phenylimidazo[1,2-a]pyridine-3-carboxamide] stands 2.1 nM; under `Cn1ccc(-c2cc(C(=O)Nc3cn4c(C(=O)O)ncc4nc3-c3ccccc3)c(F)cc2C(F)(F)F)n1` [Compound 63, 3-(2-Fluoro-5-(1-methyl-1H-pyrazol-3-yl)-4-(trifluoromethyl)benzamido)-2-phenylimidazo[1,5-a]pyrimidine-6-carboxylic acid], 32 nM; under `Cn1ccc(-c2cc(C(=O)Nc3c(-c4ccccc4)ccc4nc(C(C)(C)O)cn34)ccc2C(F)(F)F)n1` [Compound 1, N-(2-(2-Hydroxypropan-2-yl)-6-phenylimidazo[1,2-a]pyridin-5-yl)-3-(1-methyl-1H-pyrazol-3-yl)-4-(trifluoromethyl)benzamide], 17 nM.
For `CC(C)(O)c1cnc2c(NC(=O)c3cc(-c4ccccn4)c(C(F)(F)F)cc3F)c(-c3ccccc3)ccn12` [Compound 19, 2-fluoro-N-[3-(1-hydroxy-1-methylethyl)-7-phenylimidazo[1,2-a]pyridin-8-yl]-5-pyridin-2-yl-4-(trifluoromethyl)benzamide] the value was 1.9 nM; for `CC(O)c1n[nH]c2c(NC(=O)c3cc(-c4ncccn4)c(C(F)(F)F)cc3F)c(-c3ccccc3)ccc12` (racemic) [Compound 46, (R) and (S)-2-Fluoro-N-(3-(1-hydroxyethyl)-6-phenyl-1H-indazol-7-yl)-5-(pyrimidin-2-yl)-4-(trifluoromethyl)benzamide], 2.9 nM; for `NC(=O)c1cnc2c(NC(=O)c3cc(-c4ccccn4)c(C(F)(F)F)cc3F)c(-c3ccccc3)ccn12` [Compound 21, 8-({[2-fluoro-5-pyridin-2-yl-4-(trifluoromethyl)phenyl]carbonyl}amino)-7-phenylimidazo[1,2-a]pyridine-3-carboxamide], 3.7 nM.
